In ChEMBL document CHEMBL1201862, “PubChem BioAssay data set” (2004):
Calls of active or inactive are those of the source.

Assays:
Vero = test: viability of Vero cells under compound – cytotoxicity control for flavivirus capping enzyme inhibitors (AID 588742); type: functional; conditions: Chlorocebus sabaeus
Large T antigen = Large T antigen (Simian virus 40, UniProt P03070); type: functional, Betapolyomavirus macacae;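 further: Confirmatory-stage PubChem screen for compounds that inhibit SV40 T antigen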
Beta-galactosidase = Beta-galactosidase (Escherichia coli, UniProt Q8VNN2); test: detection-enzyme interference by beta-gal modulators – biochemical, E. coli enzyme, set 3, artefact control for CCR6 antagonist project, dose response (AID 504712); type: functional
[1] = biological target: Peroxisome proliferator-activated receptor gamma/Nuclear receptor coactivator 1 (Homo sapiens, UniProt P37231); test: TR-FRET dose response biochemical High Throughput Screening assay for agonists of the steroid receptor coactivator 1 (SRC-1) recruitment by the peroxisome proliferator-activated receptor gamma (PPAR gamma): non-selective agonists. [Related pubchem assays (depositor defined):AID1300, AID1808, AID504735, AID631]; type: protein assay
[2] = biological target: Peroxisome proliferator-activated receptor gamma/Nuclear receptor coactivator 2 (Homo sapiens, UniProt P37231); test: (§1) TR-FRET dose response biochemical High Throughput Screening assay for agonists of the steroid receptor coactivator 2 (SRC-2) recruitment by the peroxisome proliferator-activated receptor gamma (PPAR gamma): non-selective agonists. [Related pubchem assays: 1297, 1032 ]; type: functional
[3] = biological target: Peroxisome proliferator-activated receptor gamma/Nuclear receptor coactivator 3 (Homo sapiens, UniProt P37231); test: as §1, with “3 (SRC-3)” for “2 (SRC-2)”, “1301 (Confirmation screen.), 1048 (Primary screen.)]” for “1297, 1032 ]”; type: functional
[4] = biological target: T1, Microphthalmia-associated transcription factor (Homo sapiens, UniProt O75030); test: reducers of TRPM1 reporter luminescence, concentration series – cell-based, SK-MEL-5, cherry-picked, set 3, MITF inhibitor project, dose response (AID 493073); type: functional;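 further: SK-MEL-5 melanoma cells with luciferase driven by the MITF target TRPM1 promoter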
T1 sequence (O75030 whole entry): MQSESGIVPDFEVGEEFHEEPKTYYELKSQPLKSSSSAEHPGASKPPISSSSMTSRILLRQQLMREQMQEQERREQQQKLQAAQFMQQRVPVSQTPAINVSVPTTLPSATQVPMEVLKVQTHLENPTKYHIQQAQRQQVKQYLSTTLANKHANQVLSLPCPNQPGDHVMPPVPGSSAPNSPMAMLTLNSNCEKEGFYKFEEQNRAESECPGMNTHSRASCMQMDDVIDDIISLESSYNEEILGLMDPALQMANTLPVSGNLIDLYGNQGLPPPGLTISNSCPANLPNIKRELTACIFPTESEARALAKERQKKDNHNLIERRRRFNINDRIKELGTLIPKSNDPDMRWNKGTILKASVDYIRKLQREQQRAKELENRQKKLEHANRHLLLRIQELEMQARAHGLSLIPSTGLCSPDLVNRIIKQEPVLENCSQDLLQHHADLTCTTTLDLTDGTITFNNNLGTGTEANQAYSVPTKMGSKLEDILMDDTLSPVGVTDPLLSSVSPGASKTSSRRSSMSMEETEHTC

Cysteine protease ATG4B = biological target: T2, Cysteine protease ATG4B (Homo sapiens, UniProt Q9Y4P1); type: functional;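 further: Fluorescence-based dose-response confirmation assay measuring inhibition of ATG4B activity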
T2 sequence (Q9Y4P1 whole entry): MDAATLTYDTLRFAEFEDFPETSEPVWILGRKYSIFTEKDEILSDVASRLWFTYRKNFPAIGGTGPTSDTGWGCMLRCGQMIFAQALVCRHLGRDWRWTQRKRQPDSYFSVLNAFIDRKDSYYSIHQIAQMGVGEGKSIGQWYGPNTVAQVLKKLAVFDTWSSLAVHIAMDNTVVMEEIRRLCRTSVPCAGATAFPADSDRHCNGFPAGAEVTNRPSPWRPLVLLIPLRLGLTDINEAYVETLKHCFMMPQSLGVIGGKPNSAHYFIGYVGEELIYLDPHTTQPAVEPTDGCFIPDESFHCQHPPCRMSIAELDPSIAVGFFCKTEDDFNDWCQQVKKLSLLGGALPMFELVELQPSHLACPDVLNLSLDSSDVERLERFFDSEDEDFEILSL

Phospholipase A2 = Phospholipase A2 (Homo sapiens, UniProt P04054); type: functional;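 further: confirmatory dose-response counterscreen on phospholipase A2, testing hits that came from an ultra-high-throughput screen for ATG4B inhibitors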
[5] = biological target: T3, Ubiquitin-conjugating enzyme E2 N (Homo sapiens, UniProt P61088); type: functional;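 further: Dose-response confirmation in a TR-FRET assay detecting UBC13-driven polyubiquitin chain formation, inhibition measured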
T3 sequence (P61088 whole entry): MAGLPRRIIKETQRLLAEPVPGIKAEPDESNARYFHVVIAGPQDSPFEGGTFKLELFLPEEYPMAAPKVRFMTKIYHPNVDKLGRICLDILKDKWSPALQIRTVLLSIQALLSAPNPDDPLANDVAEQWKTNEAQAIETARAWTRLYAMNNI

[6] = biological target: T4, DNA repair protein RAD52 homolog (Homo sapiens, UniProt P43351); type: functional, biochemical
T4 sequence (P43351 whole entry): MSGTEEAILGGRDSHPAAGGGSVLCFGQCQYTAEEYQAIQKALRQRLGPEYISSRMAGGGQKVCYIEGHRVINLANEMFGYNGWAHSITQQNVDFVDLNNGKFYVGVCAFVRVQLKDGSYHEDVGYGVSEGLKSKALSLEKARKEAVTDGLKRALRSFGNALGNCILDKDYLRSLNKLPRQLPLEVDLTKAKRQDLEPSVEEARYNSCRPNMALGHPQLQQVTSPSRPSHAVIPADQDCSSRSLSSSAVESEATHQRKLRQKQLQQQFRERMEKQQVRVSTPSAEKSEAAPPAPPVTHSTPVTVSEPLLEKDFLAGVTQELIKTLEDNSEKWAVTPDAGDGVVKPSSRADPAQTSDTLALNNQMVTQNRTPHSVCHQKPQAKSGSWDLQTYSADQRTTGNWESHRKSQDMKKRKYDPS

[7] = biological target: T5, RNA-binding protein pos-1 (Caenorhabditis elegans, UniProt G5EF15); test: disruptors of C. elegans POS-1 RNA interaction – biochemical, fluorescence polarization, dose response (AID 1964);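 further: purified POS-1 fused to maltose binding protein made in E. coli; potency of compounds blocking POS-1 binding to fluorescent RNA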
T5 sequence (G5EF15 whole entry): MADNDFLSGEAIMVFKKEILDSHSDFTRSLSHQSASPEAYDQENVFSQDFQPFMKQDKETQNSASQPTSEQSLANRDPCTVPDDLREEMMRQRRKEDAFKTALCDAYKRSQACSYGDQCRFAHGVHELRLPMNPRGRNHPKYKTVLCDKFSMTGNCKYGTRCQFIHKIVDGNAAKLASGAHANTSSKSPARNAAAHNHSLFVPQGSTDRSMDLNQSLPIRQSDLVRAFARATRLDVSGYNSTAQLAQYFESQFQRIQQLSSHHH

[8] = biological target: T6, Zinc finger protein mex-5 (Caenorhabditis elegans, UniProt Q9XUB2); test: potency of MEX-5 RNA-binding blockers – biochemical, C. elegans, fluorescence polarization, dose response (AID 1960)
T6 sequence (Q9XUB2 whole entry): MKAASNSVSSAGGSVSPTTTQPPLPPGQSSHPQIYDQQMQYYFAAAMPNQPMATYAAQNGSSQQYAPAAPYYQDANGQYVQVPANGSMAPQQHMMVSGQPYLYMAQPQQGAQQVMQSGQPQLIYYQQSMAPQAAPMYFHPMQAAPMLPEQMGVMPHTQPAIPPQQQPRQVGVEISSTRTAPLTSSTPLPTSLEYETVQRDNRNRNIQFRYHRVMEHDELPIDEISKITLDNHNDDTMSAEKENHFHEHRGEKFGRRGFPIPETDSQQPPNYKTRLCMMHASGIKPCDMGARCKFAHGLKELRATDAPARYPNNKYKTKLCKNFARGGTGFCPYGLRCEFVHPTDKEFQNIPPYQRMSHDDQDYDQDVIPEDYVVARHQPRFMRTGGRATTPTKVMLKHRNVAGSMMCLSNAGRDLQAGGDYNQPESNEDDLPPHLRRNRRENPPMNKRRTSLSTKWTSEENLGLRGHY

[9] = biological target: T7, Replicative DNA helicase DnaB (Mycobacterium tuberculosis, UniProt P9WMR3); test: DnaB intein splicing inhibitors, dose response, biochemical, cell-free fluorescence (AID 449749); type: functional
T7 sequence (P9WMR3 whole entry): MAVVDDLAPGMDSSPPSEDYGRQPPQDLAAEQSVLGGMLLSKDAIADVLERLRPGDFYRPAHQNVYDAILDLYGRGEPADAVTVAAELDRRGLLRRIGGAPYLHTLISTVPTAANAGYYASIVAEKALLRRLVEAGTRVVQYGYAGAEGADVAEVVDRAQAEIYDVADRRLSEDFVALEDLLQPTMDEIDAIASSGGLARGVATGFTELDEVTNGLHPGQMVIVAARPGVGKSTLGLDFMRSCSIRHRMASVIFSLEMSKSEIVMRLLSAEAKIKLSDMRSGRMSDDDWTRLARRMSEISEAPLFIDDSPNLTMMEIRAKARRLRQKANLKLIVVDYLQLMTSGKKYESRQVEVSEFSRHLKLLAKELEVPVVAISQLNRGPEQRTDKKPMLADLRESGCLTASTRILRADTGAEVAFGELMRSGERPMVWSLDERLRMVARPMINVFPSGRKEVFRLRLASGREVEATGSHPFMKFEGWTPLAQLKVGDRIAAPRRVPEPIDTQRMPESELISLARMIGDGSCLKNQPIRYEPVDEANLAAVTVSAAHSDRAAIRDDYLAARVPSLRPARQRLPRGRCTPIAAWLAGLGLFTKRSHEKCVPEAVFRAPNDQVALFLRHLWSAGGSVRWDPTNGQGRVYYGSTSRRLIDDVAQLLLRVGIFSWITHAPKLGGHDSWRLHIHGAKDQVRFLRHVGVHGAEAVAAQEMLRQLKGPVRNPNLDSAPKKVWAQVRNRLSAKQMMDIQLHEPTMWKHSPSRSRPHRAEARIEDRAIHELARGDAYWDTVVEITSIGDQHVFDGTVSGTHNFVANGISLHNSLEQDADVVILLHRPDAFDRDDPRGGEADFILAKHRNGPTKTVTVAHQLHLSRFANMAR

Protein RecA = biological target: T8, Protein RecA (Mycobacterium tuberculosis, UniProt P9WHJ3); test: Fluorescence Cell-Free Homogeneous Dose Retest to Identify Inhibitors of RecA-Intein Splicing Activity. [Related pubchem assays (depositor defined):AID2097, AID2223, AID489010, AID492950]; type: functional
T8 sequence (P9WHJ3 whole entry): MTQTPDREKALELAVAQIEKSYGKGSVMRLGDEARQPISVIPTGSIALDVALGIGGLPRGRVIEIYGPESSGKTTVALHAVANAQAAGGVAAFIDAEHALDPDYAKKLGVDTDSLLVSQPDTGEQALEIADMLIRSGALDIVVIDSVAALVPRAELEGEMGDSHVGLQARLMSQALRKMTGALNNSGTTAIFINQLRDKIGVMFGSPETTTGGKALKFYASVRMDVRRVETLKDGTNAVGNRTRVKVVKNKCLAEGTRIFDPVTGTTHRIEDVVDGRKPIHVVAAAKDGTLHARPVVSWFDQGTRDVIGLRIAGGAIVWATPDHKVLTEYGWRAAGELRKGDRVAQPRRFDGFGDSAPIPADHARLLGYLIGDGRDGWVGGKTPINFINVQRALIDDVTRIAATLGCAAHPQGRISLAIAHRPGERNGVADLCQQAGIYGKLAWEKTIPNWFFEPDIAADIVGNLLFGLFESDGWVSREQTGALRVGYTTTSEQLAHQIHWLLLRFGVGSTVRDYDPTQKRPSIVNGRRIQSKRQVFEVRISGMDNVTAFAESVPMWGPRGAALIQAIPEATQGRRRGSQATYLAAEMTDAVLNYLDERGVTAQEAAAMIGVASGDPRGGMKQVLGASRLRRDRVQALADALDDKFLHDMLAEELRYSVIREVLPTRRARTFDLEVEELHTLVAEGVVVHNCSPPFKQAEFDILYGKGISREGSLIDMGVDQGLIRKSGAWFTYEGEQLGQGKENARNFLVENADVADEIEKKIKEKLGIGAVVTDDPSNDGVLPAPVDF

Chain of Peroxisome proliferator-activated receptor gamma/Nuclear receptor coactivator 3 (P37231 whole entry): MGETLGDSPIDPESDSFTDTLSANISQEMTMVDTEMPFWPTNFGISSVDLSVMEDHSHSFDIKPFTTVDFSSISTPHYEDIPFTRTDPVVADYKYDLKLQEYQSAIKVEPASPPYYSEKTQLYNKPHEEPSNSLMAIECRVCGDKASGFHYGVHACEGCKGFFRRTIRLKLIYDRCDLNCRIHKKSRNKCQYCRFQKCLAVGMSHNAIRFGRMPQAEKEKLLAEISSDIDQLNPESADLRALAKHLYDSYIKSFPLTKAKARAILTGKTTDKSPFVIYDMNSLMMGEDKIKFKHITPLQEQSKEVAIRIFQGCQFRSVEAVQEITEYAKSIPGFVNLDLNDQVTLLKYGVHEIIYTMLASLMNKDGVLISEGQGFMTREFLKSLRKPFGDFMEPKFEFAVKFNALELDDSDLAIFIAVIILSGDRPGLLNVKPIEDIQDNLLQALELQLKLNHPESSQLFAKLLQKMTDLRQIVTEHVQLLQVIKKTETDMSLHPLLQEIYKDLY
Chain of Peroxisome proliferator-activated receptor gamma/Nuclear receptor coactivator 3 (Q9Y6Q9 whole entry, further chain): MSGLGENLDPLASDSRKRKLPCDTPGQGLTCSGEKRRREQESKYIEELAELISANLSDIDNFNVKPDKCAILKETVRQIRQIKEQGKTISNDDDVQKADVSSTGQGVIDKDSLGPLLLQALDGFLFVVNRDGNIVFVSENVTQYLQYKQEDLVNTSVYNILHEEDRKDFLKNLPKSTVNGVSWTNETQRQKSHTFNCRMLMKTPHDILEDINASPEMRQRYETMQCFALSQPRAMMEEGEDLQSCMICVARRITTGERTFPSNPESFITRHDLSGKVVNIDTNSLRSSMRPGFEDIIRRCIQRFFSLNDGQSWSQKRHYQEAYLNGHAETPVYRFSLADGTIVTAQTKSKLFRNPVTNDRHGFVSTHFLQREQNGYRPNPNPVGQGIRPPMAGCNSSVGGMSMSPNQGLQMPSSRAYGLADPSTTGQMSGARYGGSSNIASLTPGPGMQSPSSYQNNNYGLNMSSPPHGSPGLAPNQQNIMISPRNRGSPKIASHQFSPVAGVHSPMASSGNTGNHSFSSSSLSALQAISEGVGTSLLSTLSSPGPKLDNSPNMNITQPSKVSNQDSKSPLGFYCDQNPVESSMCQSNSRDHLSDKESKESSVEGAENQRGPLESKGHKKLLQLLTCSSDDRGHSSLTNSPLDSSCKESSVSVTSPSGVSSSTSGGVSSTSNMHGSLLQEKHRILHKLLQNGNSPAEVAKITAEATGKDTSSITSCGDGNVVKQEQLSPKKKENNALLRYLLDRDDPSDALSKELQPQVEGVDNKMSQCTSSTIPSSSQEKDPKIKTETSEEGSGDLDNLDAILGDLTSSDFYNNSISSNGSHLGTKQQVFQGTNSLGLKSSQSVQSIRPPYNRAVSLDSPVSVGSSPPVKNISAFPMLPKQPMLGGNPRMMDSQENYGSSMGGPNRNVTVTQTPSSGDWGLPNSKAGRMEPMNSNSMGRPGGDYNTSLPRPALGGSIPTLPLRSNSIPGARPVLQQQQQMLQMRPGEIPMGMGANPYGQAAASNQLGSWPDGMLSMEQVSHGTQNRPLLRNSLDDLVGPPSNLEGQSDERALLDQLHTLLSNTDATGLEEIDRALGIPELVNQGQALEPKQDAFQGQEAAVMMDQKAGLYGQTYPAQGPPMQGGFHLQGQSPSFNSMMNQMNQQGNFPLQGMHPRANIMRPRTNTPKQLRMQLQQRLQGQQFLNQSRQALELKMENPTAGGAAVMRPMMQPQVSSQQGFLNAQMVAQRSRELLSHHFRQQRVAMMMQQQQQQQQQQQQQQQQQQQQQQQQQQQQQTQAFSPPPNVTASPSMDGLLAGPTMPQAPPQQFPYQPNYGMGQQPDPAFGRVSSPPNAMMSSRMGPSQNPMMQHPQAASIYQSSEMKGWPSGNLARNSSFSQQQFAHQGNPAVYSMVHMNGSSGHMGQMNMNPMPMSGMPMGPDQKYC
Chain of Peroxisome proliferator-activated receptor gamma/Nuclear receptor coactivator 1 (P37231 whole entry): as the sequence (P37231 whole entry) above
Chain of Peroxisome proliferator-activated receptor gamma/Nuclear receptor coactivator 1 (Q15788 whole entry, further chain): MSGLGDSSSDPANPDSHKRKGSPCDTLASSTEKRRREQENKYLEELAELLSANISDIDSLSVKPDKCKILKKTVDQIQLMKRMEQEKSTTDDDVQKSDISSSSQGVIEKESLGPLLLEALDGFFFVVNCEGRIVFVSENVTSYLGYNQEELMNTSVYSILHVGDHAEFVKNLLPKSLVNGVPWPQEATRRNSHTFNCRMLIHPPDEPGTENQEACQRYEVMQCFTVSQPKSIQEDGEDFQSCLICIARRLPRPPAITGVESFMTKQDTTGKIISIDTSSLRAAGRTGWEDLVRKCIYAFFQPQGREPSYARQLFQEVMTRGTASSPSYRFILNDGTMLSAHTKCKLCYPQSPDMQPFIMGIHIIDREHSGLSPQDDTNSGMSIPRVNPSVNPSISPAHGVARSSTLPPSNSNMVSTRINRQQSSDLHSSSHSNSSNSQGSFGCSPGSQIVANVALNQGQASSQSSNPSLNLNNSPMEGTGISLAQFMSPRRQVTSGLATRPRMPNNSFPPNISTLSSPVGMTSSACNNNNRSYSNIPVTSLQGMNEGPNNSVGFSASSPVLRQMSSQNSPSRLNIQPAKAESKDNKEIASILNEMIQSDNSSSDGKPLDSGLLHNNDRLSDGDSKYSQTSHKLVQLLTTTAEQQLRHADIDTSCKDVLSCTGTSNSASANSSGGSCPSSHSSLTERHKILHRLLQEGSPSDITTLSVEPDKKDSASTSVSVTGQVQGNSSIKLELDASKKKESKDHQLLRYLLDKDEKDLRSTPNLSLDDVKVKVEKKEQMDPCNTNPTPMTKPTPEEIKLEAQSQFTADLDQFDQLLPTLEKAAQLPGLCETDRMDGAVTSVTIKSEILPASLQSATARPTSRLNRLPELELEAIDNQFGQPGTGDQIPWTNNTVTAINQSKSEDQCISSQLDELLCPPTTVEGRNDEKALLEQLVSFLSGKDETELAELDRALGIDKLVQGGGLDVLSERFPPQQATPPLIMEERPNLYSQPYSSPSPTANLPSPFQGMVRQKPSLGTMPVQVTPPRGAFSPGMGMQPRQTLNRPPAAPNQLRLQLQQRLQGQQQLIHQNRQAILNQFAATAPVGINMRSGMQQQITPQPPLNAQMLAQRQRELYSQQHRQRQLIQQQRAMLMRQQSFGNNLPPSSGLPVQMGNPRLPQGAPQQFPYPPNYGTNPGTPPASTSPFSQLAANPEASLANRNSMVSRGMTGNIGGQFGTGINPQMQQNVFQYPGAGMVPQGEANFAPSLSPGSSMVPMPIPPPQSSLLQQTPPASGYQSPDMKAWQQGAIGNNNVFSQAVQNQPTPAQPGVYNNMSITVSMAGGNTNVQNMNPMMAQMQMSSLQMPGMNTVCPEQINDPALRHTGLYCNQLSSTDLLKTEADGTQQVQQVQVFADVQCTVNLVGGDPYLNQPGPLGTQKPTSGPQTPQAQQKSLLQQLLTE
Chain of Large T antigen (P03070 whole entry): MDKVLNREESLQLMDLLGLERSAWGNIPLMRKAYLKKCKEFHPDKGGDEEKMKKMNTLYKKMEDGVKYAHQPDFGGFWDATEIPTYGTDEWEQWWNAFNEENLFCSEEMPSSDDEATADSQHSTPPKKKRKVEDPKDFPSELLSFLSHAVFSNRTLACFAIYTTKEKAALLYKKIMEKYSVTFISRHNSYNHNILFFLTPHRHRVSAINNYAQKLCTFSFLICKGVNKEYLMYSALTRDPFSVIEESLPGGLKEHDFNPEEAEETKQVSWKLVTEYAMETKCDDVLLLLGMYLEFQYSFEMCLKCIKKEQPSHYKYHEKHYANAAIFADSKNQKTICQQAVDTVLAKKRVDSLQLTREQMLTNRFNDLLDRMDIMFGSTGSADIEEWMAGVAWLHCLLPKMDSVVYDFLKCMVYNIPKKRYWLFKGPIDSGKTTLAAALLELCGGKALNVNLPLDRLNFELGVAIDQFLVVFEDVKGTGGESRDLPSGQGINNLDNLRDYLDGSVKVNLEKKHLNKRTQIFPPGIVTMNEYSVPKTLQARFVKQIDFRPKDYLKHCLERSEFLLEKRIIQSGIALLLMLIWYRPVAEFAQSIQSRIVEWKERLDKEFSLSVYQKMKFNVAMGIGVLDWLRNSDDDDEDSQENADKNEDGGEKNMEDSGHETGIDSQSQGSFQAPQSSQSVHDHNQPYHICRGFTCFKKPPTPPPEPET
Chain of Phospholipase A2 (P04054 whole entry): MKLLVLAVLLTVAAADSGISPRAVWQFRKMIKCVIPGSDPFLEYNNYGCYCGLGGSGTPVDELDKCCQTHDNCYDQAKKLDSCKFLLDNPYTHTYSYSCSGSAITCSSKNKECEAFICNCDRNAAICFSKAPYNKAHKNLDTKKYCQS

Row | Compound | EC50 [1] | EC50 [2] | EC50 [3] | AC50 [4] | other results
1 | CCOc1c(Br)cc(CNc2ccc(N3CCOCC3)cc2)cc1OC | – | – | – | – | CC50 (Vero): > 40 µM (active); IC50 (Large T antigen): 8.16 µM (active)
2 | CCN(CC)CCNC(=S)NC(=O)c1cn(-c2ccccc2)nc1-c1ccc(OC)cc1 | – | – | – | – | CC50 (Vero): > 40 µM (active); IC50 (Beta-galactosidase): > 66.6 µM (inactive)
3 | Cc1ccc(S(=O)(=O)NCC(=O)OCC(=O)c2ccc(Br)s2)cc1 | 60 µM (inactive) | 8.2 µM (active) | > 79.4 µM (not active) | – | –
4 | COc1cccc(C2C=C(c3ccc(Br)s3)Nc3ncnn32)c1OC (centres undefined) | 8.66 µM (active) | 9.72 µM (active) | > 26.5 µM (not active) | – | –
5 | CN=C(S)N1N=C(c2ccccc2)CC1c1ccc(Br)cc1 (centres undefined) | 27.8 µM (inactive) | 27.5 µM (not active) | > 79.4 µM (not active) | – | –
6 | Cc1ccc(-c2cn3nc(C)c(C)nc3n2)cc1 | – | – | – | 5.3 µM (active) | –
7 | CC(=C\c1ccccc1)/C=C1/SC(=S)N(CCCC(=O)O)C1=O | – | – | – | – | IC50 (Cysteine protease ATG4B): 17.1 µM (active); IC50 (Phospholipase A2): 34.7 µM (inactive)
8 | COc1cccc(/C=C2/Sc3ccc(C(=O)NCCN4CCCC4)cc3NC2=O)c1 | – | – | – | 17.9 µM (active) | IC50 [5]: > 20 µM (inactive); AC50 [6]: 4.28 µM (active)
9 | COC(=O)c1ccc(-n2c(C)cc(C(=O)CCl)c2C)cc1 | – | – | – | 7.46 µM (active) | EC50 [7]: > 300 µM (not active); EC50 [8]: > 300 µM (not active); AC50 [9]: 5.18 µM (active); EC50 (Protein RecA): 22.7 µM (active)
